Test results taken from the supplement of paper PMC10307832.

How the values were obtained:
Experiment in all cases: relative viability (nuclei count vs DMSO), 5 days (fraction); higher = more cells survive
[1] = compound: CC1=NN=C(O1)C2=NN=C(C=C2)N3CCC(CC3)OC4=C(C=CC(=C4)F)Cl + O=C(CCCCCCC(=O)Nc1ccccc1)NO [Vorinostat] (partner 1 µM)
How it was run: (§1)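 After 5 days of treatment, lung cancer cells in 1536-well plates were fixed and stained in a single step (final 0.05% Triton X-100, 1% formaldehyde, 1 ug/ml Hoechst) and their nuclei counted on 4× images. Treatment had been applied by pin tool the day after seeding as one drug alone or as a fixed anchor-drug dose with five library-drug doses (not always all listed) in √10 steps. Relative viability is the nuclei count of treated wells divided by that of vehicle wells, and values are medians of duplicate plates.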

[2] = compound: CC1=NN=C(O1)C2=NN=C(C=C2)N3CCC(CC3)OC4=C(C=CC(=C4)F)Cl + CC(C)C[C@H](NC(=O)[C@H](Cc1ccccc1)NC(=O)c1cnccn1)B(O)O [Bortezomib] (partner 0.002 µM)
How it was run: as §1

Tosedostat + Crizotinib = compound: CC(C)C[C@@H](C(=O)N[C@H](C(=O)OC1CCCC1)c1ccccc1)[C@H](O)C(=O)NO [Tosedostat] + C[C@@H](Oc1cc(-c2cnn(C3CCNCC3)c2)cnc1N)c1c(Cl)ccc(F)c1Cl [Crizotinib] (partner 1 µM)
How it was run: as §1

Tosedostat + Palbociclib = compound: CC(C)C[C@@H](C(=O)N[C@H](C(=O)OC1CCCC1)c1ccccc1)[C@H](O)C(=O)NO [Tosedostat] + CC(=O)c1c(C)c2cnc(Nc3ccc(N4CCNCC4)cn3)nc2n(C2CCCC2)c1=O [Palbociclib] (partner 0.5 µM)
How it was run: as §1

Row | Cell Line | relative viability ([1]; first compound 0.253 µM) | relative viability ([1]; first compound 0.8 µM) | relative viability ([1]; first compound 2.53 µM) | relative viability ([1]; first compound 8 µM) | relative viability ([2]; first compound 0.253 µM) | relative viability ([2]; first compound 0.8 µM) | relative viability ([2]; first compound 2.53 µM) | relative viability ([2]; first compound 8 µM) | relative viability (Tosedostat + Crizotinib; first compound 0.02 µM) | relative viability (Tosedostat + Crizotinib; first compound 0.06325 µM) | relative viability (Tosedostat + Crizotinib; first compound 0.2 µM) | relative viability (Tosedostat + Crizotinib; first compound 0.6325 µM) | relative viability (Tosedostat + Crizotinib; first compound 2 µM) | relative viability (Tosedostat + Palbociclib; first compound 0.02 µM) | relative viability (Tosedostat + Palbociclib; first compound 0.06325 µM) | relative viability (Tosedostat + Palbociclib; first compound 0.2 µM) | relative viability (Tosedostat + Palbociclib; first compound 0.6325 µM) | relative viability (Tosedostat + Palbociclib; first compound 2 µM)
1 | HCC-366 | 0.0995 | 0.112 | 0.127 | 0.0801 | 0.394 | 0.438 | 0.436 | 0.395 | 0.681 | 0.532 | 0.432 | 0.465 | 0.325 | 0.389 | 0.43 | 0.372 | 0.391 | 0.369
2 | HCC-827 | 0.382 | 0.207 | 0.322 | 0.377 | 0.514 | 0.381 | 0.524 | 0.523 | 0.954 | 0.933 | 0.977 | 0.888 | 0.756 | 0.421 | 0.536 | 0.505 | 0.466 | 0.502
3 | HOP-62 | 0.543 | 0.243 | 0.287 | 0.203 | 0.577 |  | 0.764 | 0.419 | 1.01 | 0.994 | 0.677 | 0.81 | 0.69 | 0.478 | 0.467 | 0.463 | 0.462 | 0.439
4 | IA-LM | 0.402 | 0.296 | 0.435 | 0.364 | 0.17 | 0.137 | 0.132 | 0.186 | 0.937 | 0.879 | 0.776 | 0.692 | 0.602 |  |  |  |  | 
5 | LC-2-ad | 0.321 | 0.254 | 0.322 | 0.284 | 0.323 | 0.259 | 0.328 | 0.274 | 0.47 | 0.454 | 0.493 | 0.378 | 0.348 | 0.49 | 0.496 | 0.525 | 0.446 | 0.529
6 | LCLC-97TM1 | 0.649 |  | 0.522 | 0.573 | 0.373 | 0.211 | 0.392 | 0.362 | 0.338 |  |  | 0.288 | 0.221 | 0.227 | 0.184 | 0.185 | 0.221 | 0.194
7 | LCLC-103H | 0.503 | 0.478 | 0.531 | 0.475 | 0.69 | 0.829 | 0.744 | 0.675 | 1.09 | 1.03 | 1.06 | 1.13 | 1.02 | 0.447 | 0.483 | 0.456 | 0.504 | 0.486
8 | LK-2 | 0.352 | 0.256 | 0.291 | 0.295 |  |  |  |  | 0.218 | 0.225 | 0.232 | 0.249 | 0.215 | 0.768 | 0.702 | 0.721 | 0.739 | 0.909
9 | LOU-NH91 |  | 0.853 | 0.807 | 0.922 |  | 0.517 | 0.479 | 0.436 | 0.86 | 0.752 | 0.767 | 0.695 | 0.694 | 0.549 | 0.458 | 0.545 | 0.559 | 0.528
10 | LU99A | 0.549 | 0.456 | 0.534 | 0.563 | 1.01 | 1 | 1.06 | 0.953 | 0.546 | 0.636 | 0.648 | 0.484 | 0.478 | 0.428 | 0.449 | 0.476 | 0.376 | 0.325
